Structures can show the parent of a compound that is named as a salt.
Tests used:
Assay type in all cases: biochemical
[1] = biological target: T1, human JAK3 (a.a. 781-1124) (Homo sapiens, UniProt P52333); test: In vitro JAK kinase assay (HTRF, phosphorylation of a biotinylated peptide), JAK3; settings: Table B1
T1 construct: JAK3 (a.a. 781-1124); His tag (N); made in house; host or cells: insect cells (baculovirus)
Summary of the method: (§1)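 Kinase activity was measured as phosphorylation of a biotinylated peptide, with ATP at 90 μM for JAK1, 30 μM for JAK2 and 3 μM for JAK3. Reactions ran 1 hr at room temperature, were stopped with EDTA plus SA-APC and Eu-Py20, and were read by HTRF after 40 minutes of antibody binding.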

[2] = biological target: T2, human JAK1 (a.a. 837-1142) (Homo sapiens, UniProt P23458); test: In vitro JAK kinase assay (HTRF, phosphorylation of a biotinylated peptide), JAK1; settings: Table B1; read-out: JAK1 IC50
T2 construct: human JAK1 (a.a. 837-1142); His tag (N); made in house; host or cells: insect cells (baculovirus)
Summary of the method: as §1

TYK2 = TYK2 (Homo sapiens, UniProt P29597); test: TYK2 kinase inhibition (Table A1); settings: Table B1
[3] = biological target: T3, Recombinant Human Anaplastic Lymphoma Kinase (Homo sapiens, UniProt Q9UM73); test: ALK HTRF kinase assay; settings: for IC50: Table B1, cells without percent sign; for ALK % of inhibition at a concentration of 500 nM or 1 mM: compound at a concentration of 500 nM or 1 mM (not specified), cells shown as percentage
T3 construct: purchased Invitrogen, Carlsbad, Calif
Summary of the method: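 Recombinant human ALK phosphorylated a biotinylated synthetic peptide. Phosphotyrosine was detected by TR-FRET between a Eu-labelled anti-phosphotyrosine antibody and streptavidin-allophycocyanin. IC50 values came from fitting signal against inhibitor concentration to a four-parameter logistic equation with variable Hill slope.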

[4] = biological target: T4, human JAK2 (a.a. 828-1132) (Homo sapiens, UniProt O60674); test: In vitro JAK kinase assay (HTRF, phosphorylation of a biotinylated peptide), JAK2; settings: Table B1
T4 construct: JAK2 (a.a. 828-1132); His tag (N); made in house; host or cells: insect cells (baculovirus)
Summary of the method: as §1

T4 sequence (O60674 828-1132): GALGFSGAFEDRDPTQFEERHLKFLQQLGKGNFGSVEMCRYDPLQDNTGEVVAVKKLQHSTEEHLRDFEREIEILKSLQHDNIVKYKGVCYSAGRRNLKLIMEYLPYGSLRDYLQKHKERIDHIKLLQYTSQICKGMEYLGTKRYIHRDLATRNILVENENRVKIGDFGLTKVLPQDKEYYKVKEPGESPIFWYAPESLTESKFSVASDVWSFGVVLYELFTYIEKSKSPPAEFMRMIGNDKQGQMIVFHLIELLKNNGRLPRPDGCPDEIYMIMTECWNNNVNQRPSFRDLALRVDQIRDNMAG
T2 sequence (P23458 849-1154): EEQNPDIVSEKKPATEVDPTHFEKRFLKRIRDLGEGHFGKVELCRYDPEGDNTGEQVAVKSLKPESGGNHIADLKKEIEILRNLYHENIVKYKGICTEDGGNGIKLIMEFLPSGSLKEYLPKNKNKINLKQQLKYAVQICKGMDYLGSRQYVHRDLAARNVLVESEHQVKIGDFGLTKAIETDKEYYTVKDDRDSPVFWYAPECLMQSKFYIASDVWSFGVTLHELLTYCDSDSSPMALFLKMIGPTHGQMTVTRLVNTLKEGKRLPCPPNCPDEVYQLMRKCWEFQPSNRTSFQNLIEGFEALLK
T3 sequence (Q9UM73 19-1620): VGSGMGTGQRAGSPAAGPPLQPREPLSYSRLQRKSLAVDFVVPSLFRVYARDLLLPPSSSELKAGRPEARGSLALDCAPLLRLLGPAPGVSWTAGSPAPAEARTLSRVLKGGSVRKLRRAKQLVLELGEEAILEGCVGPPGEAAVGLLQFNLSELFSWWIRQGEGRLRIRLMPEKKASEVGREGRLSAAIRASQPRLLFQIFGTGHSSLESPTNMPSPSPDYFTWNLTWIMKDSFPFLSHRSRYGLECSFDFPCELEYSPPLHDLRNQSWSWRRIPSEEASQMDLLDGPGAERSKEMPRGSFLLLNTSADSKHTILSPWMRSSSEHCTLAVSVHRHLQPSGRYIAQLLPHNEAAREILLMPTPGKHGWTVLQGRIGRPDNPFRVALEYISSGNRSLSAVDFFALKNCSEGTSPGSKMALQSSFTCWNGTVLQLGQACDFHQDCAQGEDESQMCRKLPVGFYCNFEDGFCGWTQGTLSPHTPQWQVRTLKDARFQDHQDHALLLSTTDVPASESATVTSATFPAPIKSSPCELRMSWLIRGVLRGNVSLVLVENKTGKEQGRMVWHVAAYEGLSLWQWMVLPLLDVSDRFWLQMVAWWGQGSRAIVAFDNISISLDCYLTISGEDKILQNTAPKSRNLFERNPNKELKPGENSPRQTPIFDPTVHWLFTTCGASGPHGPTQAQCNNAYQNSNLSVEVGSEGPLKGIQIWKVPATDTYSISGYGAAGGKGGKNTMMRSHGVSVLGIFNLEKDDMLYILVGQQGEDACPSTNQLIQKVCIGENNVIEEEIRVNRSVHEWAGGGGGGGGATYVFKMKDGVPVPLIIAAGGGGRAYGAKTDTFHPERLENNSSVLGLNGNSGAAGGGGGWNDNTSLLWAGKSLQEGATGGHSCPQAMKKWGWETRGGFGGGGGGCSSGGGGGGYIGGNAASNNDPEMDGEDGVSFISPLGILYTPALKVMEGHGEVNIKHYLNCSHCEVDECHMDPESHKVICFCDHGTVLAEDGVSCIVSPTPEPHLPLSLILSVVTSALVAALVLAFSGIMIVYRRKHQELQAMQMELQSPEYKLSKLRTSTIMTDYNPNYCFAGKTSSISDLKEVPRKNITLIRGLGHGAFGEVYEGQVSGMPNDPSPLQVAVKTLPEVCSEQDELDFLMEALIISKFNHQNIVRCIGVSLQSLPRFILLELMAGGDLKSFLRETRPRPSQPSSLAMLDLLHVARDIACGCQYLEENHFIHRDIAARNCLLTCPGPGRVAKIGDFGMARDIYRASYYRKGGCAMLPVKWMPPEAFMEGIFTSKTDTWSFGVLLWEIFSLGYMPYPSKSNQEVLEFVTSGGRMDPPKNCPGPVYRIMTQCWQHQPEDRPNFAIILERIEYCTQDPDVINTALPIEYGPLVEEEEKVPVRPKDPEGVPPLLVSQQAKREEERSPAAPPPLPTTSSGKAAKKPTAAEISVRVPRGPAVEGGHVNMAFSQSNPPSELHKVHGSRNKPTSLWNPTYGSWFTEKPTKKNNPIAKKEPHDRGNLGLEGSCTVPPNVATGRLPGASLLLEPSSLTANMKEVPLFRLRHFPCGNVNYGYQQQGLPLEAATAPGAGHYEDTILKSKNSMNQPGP
Chain of TYK2 (P29597 whole entry): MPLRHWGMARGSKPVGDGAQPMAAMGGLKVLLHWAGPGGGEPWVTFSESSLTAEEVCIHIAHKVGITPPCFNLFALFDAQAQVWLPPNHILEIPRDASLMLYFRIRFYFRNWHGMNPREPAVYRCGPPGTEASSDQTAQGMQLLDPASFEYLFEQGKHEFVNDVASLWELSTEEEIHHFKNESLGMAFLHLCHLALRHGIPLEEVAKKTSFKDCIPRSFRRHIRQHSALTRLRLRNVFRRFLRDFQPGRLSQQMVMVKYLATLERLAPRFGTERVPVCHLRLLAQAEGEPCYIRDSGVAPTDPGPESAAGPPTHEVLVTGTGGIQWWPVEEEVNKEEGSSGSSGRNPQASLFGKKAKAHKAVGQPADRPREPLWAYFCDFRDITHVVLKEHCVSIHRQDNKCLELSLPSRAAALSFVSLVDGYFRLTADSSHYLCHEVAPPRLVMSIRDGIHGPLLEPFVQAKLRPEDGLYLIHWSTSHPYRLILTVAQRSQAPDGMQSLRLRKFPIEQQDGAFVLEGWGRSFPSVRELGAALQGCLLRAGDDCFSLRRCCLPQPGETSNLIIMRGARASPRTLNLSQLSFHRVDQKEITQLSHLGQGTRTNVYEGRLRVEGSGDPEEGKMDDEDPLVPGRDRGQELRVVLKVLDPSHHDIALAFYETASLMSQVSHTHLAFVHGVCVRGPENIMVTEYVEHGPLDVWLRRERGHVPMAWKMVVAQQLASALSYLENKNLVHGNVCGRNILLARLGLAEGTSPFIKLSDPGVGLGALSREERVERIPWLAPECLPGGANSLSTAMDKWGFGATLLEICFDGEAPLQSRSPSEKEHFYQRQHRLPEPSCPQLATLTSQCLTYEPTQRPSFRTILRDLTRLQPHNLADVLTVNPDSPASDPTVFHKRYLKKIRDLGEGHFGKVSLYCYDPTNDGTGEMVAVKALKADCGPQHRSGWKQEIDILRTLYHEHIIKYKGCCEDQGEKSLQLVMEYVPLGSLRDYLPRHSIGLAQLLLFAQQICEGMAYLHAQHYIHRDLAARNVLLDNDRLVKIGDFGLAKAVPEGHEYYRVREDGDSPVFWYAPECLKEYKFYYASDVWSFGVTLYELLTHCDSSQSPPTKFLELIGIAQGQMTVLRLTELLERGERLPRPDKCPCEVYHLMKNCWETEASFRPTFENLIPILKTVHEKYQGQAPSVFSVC
T1 sequence (P52333 781-1124): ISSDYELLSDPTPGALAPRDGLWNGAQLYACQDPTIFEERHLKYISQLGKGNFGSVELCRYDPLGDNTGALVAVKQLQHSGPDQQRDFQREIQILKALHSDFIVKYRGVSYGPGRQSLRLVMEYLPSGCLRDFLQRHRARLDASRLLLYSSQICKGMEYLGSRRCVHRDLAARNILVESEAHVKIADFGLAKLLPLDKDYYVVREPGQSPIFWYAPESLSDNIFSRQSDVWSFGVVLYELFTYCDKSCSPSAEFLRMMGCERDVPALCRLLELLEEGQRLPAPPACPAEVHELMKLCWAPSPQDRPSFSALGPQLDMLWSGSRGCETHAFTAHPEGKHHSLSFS

| SMILES | IC50 [1] [nM] | IC50 [2] [nM] | IC50 (TYK2) [nM] | IC50 [3] [nM] | IC50 [4] [nM] | ALK % of inhibition at a concentration of 500 nM or 1 mM [3] [%] |
| --- | --- | --- | --- | --- | --- | --- |
| Cn1cncc1C(=O)Nc1cc2cc(c1)Nc1nc(ncc1Cl)Nc1cccc(c1)CC2 [Example B208, N-[6-Chloro-2,4,8,22-tetraazatetracyclo[14.3.1.1(3,7).1(9,13)]docosa-1(20),3(22),4,6,9(21),10,12,16,18-nonaen-11-yl]-1-methyl-1H-imidazole-5-carboxamide trifluoroacetate] | 84 | 209 | 150 | > 1000 | 57 |  |
| O=C(Nc1cc2cc(c1)Nc1nc(ncc1Cl)Nc1cccc(c1)CC2)c1nccs1 [Example B209, N-[6-Chloro-2,4,8,22-tetraazatetracyclo[14.3.1.1(3,7).1(9,13)]docosa-1(20),3(22),4,6,9(21),10,12,16,18-nonaen-11-yl]-1,3-thiazole-2-carboxamide trifluoroacetate] | 140 | 64 | 110 | > 1000 | 51 |  |
| Cc1ncoc1C(=O)Nc1cc2cc(c1)Nc1nc(ncc1Cl)Nc1cccc(c1)CC2 [Example B210, N-[6-Chloro-2,4,8,22-tetraazatetracyclo[14.3.1.1(3,7).1(9,13)]docosa-1(20),3(22),4,6,9(21),10,12,16,18-nonaen-11-yl]-4-methyl-1,3-oxazole-5-carboxamide trifluoroacetate] | 76 | 62 | 357 | > 1000 | 42 |  |
| N#Cc1ccc(NC(=O)Nc2cc3cc(c2)Nc2nc(ncc2Cl)Nc2cccc(c2)CC3)cc1 [Example B212, N-[6-Chloro-2,4,8,22-tetraazatetracyclo[14.3.1.1(3,7).1(9,13)]docosa-1(20),3(22),4,6,9(21),10,12,16,18-nonaen-11-yl]-N′-(4-cyanophenyl)urea trifluoroacetate] | 312 | 400 | 500 |  | 238 | 14 |
| O=C(Nc1cc2cc(c1)Nc1nc(ncc1Cl)Nc1cccc(c1)CC2)Nc1ccccc1F [Example B213, N-[6-Chloro-2,4,8,22-tetraazatetracyclo[14.3.1.1(3,7).1(9,13)]docosa-1(20),3(22),4,6,9(21),10,12,16,18-nonaen-11-yl]-N′-(2-fluorophenyl)urea trifluoroacetate] | 184 | 70 | 206 |  | 173 | 11 |
| O=C(Nc1cccc(F)c1)Nc1cc2cc(c1)Nc1nc(ncc1Cl)Nc1cccc(c1)CC2 [Example B214, N-[6-Chloro-2,4,8,22-tetraazatetracyclo[14.3.1.1(3,7).1(9,13)]docosa-1(20),3(22),4,6,9(21),10,12,16,18-nonaen-11-yl]-N′-(3-fluorophenyl)urea trifluoroacetate] | 231 | > 1000 | > 1000 |  | 281 | 39 |
| O=C(Nc1cc2cc(c1)Nc1nc(ncc1Cl)Nc1cccc(c1)CC2)NC1CCCC1 [Example B215, N-[6-Chloro-2,4,8,22-tetraazatetracyclo[14.3.1.1(3,7).1(9,13)]docosa-1(20),3(22),4,6,9(21),10,12,16,18-nonaen-11-yl]-N′-cyclopentylurea trifluoroacetate] | 189 | 91 | 766 |  | 43 | 31 |
| N#Cc1ccccc1S(=O)(=O)Nc1cc2cc(c1)Nc1nc(ncc1Cl)Nc1cccc(c1)CC2 [Example B216, N-[6-Chloro-2,4,8,22-tetraazatetracyclo[14.3.1.1(3,7).1(9,13)]docosa-1(20),3(22),4,6,9(21),10,12,16,18-nonaen-11-yl]-2-cyanobenzenesulfonamide trifluoroacetate] | 166 | 48 | 66 |  | 29 | 1.3 |

Reference: patent US8871753B2, “Macrocyclic compounds and their use as kinase inhibitors” (Incyte Corporation, priority 2008, dated 2014)
